From US12128041B2, “Nanoparticles for delivering drug, whose surface is modified with peptide for targeting brain cancer, preparation method thereof and use thereof” (UNIVERSITY-INDUSTRY COOPERATION GROUP OF KYUNG HEE …, priority 2020, dated 2024)
Where two headings read alike, the source gives them in different places. Where a SMILES comes first, the peptide text is derived from it.

Assays:
U87MG cells [1] = assay: Cytotoxicity in U87MG cells, WST-1 cell viability; format: cell-based, human; settings: 6 hours
Description: (§1) The present inventor conducted the following experiments to confirm the intracellular uptake efficiency and cytotoxicity of SIWV-pSiNP(SN-38). Specifically, U87MG cells were seeded into 96-well plates at a density of 10,000 cells/well and cultured under the conditions of 5% CO2 and 37° C. for 24 hours. Thereafter, the cells were treated with 100 μL of each of the SN-38 drug alone, pSiNPs, pSiNP(SN-38) and SIWV-pSiNP(SN-38) nanoparticles at a concentration of 6.25, 12.5, 25, 50, and 100 μM, respectively, and cultured for 6 hours. After 6 hours, in order to confirm the intracellular uptake efficiency, cell nuclei were stained by treating the cells with a 4′,6-diamino-2-phenylindole (DAPI) reagent for 10 minutes, and cell membranes were then stained by treating the cells with a CellMask™ Deep Red Plasma membrane stain reagent for 1 hour. After staining, the cells were washed three times with PBS and treated with 4% paraformaldehyde for 20 minutes to fix the cells, and then the cells were observed under a confocal microscope.
Meanwhile, after the cells were treated with SN-38 and each of the nanoparticles as described above and cultured for 6 hours, 10 μL of a 10% WST-1 reagent was added to each well and the cells were cultured for 2 hours. Thereafter, cell viability was analyzed by measuring the absorbance at 450 nm using a microplate reader, and the cell viability was analyzed using a relative percentage for U87MG cells not treated with nanoparticles.

U87MG cells [2] = assay: Intracellular uptake in U87MG cells by confocal microscope; format: cell-based, human; settings: cultured for 6 hours
Description: as §1

[3] = In vivo distribution of TAMRA-labeled SIWV peptide in healthy mice by fluorescence signal; settings: tail vein injection
[4] = mouse, in vivo
[5] = Passage through the blood-brain barrier, confocal microscopy of brain tissue sections; format: in vivo, mice; settings: brain removed 3 hours after tail vein injection of SIWV-TAMRA

Compound: CCc1c2c(nc3ccc(O)cc13)-c1cc3c(c(=O)n1C2)COC(=O)[C@]3(O)CC [SN-38, 7-ethyl-10-hydroxy-camptothecin]
- cytotoxicity (toxicity of U87MG cells) (U87MG cells [1]; 6.5 μM): 12.4%
- cytotoxicity (U87MG cells [1]; 100 μM): 55.4%
- concentration dependence of toxicity (U87MG cells [1]; U87MG cells, 6.25 to 100 μM): increased toxicity as the treatment concentration was increased
- intracellular uptake (U87MG cells [2]): intracellular uptake did not occur

Compound: CN(C)c1ccc2c(-c3ccccc3C(=O)[O-])c3ccc(N(C)C)cc3[o+]c2c1 [TAMRA, tetramethylrhodamine]
- time of excretion from the body [3]: ≤ 2 h

Compound: CC[C@H](C)[C@H](NC(=O)[C@@H](N)CO)C(=O)N[C@@H](Cc1c[nH]c2ccccc12)C(=O)N[C@H](C(=O)O)C(C)C [SIWV peptide] (H-SIWV-OH; N-terminus and C-terminus assumed)
- time of excretion from the body [4]: 24 h
- passage through the blood-brain barrier [5]: passed through the blood-brain barrier
